Here are results for eight compounds from PubChem BioAssay AID288 (DTP/NCI, 2004).

This assay has as its system BDF1 mice, M5076 sarcoma s.c., survival/tumor T/C. Nature of the assay: NCI In Vivo Anticancer Drug Screen. Data for tumor model Sarcoma M5076 (subcutaneous) in B6D2F1 (BDF1) mice. How it is done: The antitumor activity of compounds was measured in mice bearing transplantable tumors. Survival or tumor size were measured and the results are expressed as the measurement made in the treated group (T) divided by the measurement made in the vehicle treated control group (C). The tumor model used in this assay is Sarcoma M5076 (subcutaneous) in B6D2F1 (BDF1) mice

Where “and” joins values, the source holds several entries; their conditions need not be identical. Equal entries are not always repeated. Results filed as inconclusive are left out. Numbered stars: 1 amine (or outer) side, 2 acyl side, 3 side chain; on linkers, the order of the positions; unused ones are H or OH. Bridge positions count the residues as written; N and C are the ends. Square brackets hold non-standard residues; d marks the D form. Peptide text beside a SMILES is read from it. I, II: the chains in the order shown. * marks the point of attachment. ξ: configuration not given here. Quinaldoyl(3-OH,6-OMe) = COc1ccc2nc(C(=O)*)c(O)cc2c1; X1 = CCC(=O)OC1CC=NN([*:1])C1C(=O)[*:2]; X2 = CC(=O)OC1CC=NN([*:1])C1C(=O)[*:2]; ξNMeVal(3-OH) = CNC(C(=O)O)C(C)(C)O; Sar = CNCC(=O)O

As for `CC[C@](O)(C(=O)O)c1cc2n(c(=O)c1CO)Cc1cc3ccccc3nc1-2`, the T/C is, setting by setting: (endpoint: mean tumor weight, dose: 1.13 mg/kg/injection, schedule: Q02DX011 (ip), vehicle: saline, higher = larger tumour) 95 % of control; (endpoint: mean tumor weight, dose: 2.25 mg/kg/injection, schedule: Q02DX011 (ip), vehicle: saline, higher = larger tumour) 61 % of control; (endpoint: mean tumor weight, dose: 4.5 mg/kg/injection, schedule: Q02DX011 (ip), vehicle: saline, higher = larger tumour) 25 % of control; (endpoint: median tumor weight (est.), dose: 1.13 mg/kg/injection, schedule: Q02DX011 (ip), vehicle: saline, higher = larger tumour) 97 % of control; (endpoint: median tumor weight (est.), dose: 2.25 mg/kg/injection, schedule: Q02DX011 (ip), vehicle: saline, higher = larger tumour) 96 % of control; (endpoint: median tumor weight (est.), dose: 4.5 mg/kg/injection, schedule: Q02DX011 (ip), vehicle: saline, higher = larger tumour) 44 % of control.

In the case of `CCCCN1C(=O)/C(=C/c2ccccc2OC)SC1=S`, the T/C runs as follows: (endpoint: median survival time, dose: 50.0 mg/kg/injection, schedule: Q01DX009 (ip), vehicle: saline with Tween-80, higher = longer survival) 103 % of control; (endpoint: median survival time, dose: 100.0 mg/kg/injection, schedule: Q01DX009 (ip), vehicle: saline with Tween-80, higher = longer survival) 107 % of control; (endpoint: median survival time, dose: 200.0 mg/kg/injection, schedule: Q01DX009 (ip), vehicle: saline with Tween-80, higher = longer survival) 93 % of control; (endpoint: median tumor weight (est.), dose: 50.0 mg/kg/injection, schedule: Q01DX009 (ip), vehicle: saline with Tween-80, higher = larger tumour) 98 % of control; (endpoint: median tumor weight (est.), dose: 100.0 mg/kg/injection, schedule: Q01DX009 (ip), vehicle: saline with Tween-80, higher = larger tumour) 97 % of control; (endpoint: median tumor weight (est.), dose: 200.0 mg/kg/injection, schedule: Q01DX009 (ip), vehicle: saline with Tween-80, higher = larger tumour) 107 % of control.

On to `CCC(=O)OC1CC=NN2C(=O)C(NC(=O)c3nc4ccc(OC)cc4cc3O)COC(=O)C(C(C)(C)O)N(C)C(=O)CN(C)C(=O)CNC(=O)C3C(OC(C)=O)CC=NN3C(=O)C(NC(=O)c3nc4ccc(OC)cc4cc3O)COC(=O)C(C(C)(C)O)N(C)C(=O)CN(C)C(=O)CNC(=O)C12` (stereo not drawn) (I: {Quinaldoyl(3-OH,6-OMe)}-S[X1]G[Sar][ξNMeVal(3-OH)] / II: {Quinaldoyl(3-OH,6-OMe)}-S[X2]G[Sar][ξNMeVal(3-OH)]; ester I:1-II:C, I:C-II:1; configuration not given here), for which the T/C (endpoint: median survival time, dose: 18.8 micrograms/kg/injection, schedule: Q01DX009 (ip), vehicle: Klucel (hydroxypropylcellulose) (HPC), higher = longer survival) is 89 % of control and the T/C (endpoint: median tumor weight (est.), dose: 18.8 micrograms/kg/injection, schedule: Q01DX009 (ip), vehicle: DMSO, higher = larger tumour) was 86 % of control.

With `O=C1c2ccccc2C(=O)c2c(NCCNCCO)ccc(O)c21`, the T/C by setting is: (endpoint: median survival time, dose: 12.5 mg/kg/injection, schedule: Q04DX003 (ip), vehicle: saline with Tween-80, higher = longer survival) 90 % of control; (endpoint: median survival time, dose: 25.0 mg/kg/injection, schedule: Q04DX003 (ip), vehicle: saline with Tween-80, higher = longer survival) 116 % of control; (endpoint: median survival time, dose: 50.0 mg/kg/injection, schedule: Q04DX003 (ip), vehicle: saline with Tween-80, higher = longer survival) 103 % of control; (endpoint: median survival time, dose: 100.0 mg/kg/injection, schedule: Q04DX003 (ip), vehicle: saline with Tween-80, higher = longer survival) 104 % of control and 107 % of control; (endpoint: median survival time, dose: 150.0 mg/kg/injection, schedule: Q04DX003 (ip), vehicle: saline with Tween-80, higher = longer survival) 122 % of control.

Take `COc1ccc(Cl)[n+]([O-])n1`: the T/C (endpoint: median survival time, dose: 50.0 mg/kg/injection, schedule: Q04DX003 (ip), vehicle: Klucel (hydroxypropylcellulose) (HPC), higher = longer survival) is 100 % of control and the T/C (endpoint: median survival time, dose: 100.0 mg/kg/injection, schedule: Q04DX003 (ip), vehicle: Klucel (hydroxypropylcellulose) (HPC), higher = longer survival) was 100 % of control.

Take `CC(C)[C@](O)(C(=O)OCC1=CC[N+]2([O-])CC[C@@H](O)[C@@H]12)[C@H](C)O` (stereo partly drawn): the T/C by setting is: (endpoint: mean tumor weight, dose: 75.0 mg/kg/injection, schedule: Q02DX011 (ip), vehicle: saline, higher = larger tumour) 96 % of control; (endpoint: mean tumor weight, dose: 100.0 mg/kg/injection, schedule: Q02DX011 (ip), vehicle: saline, higher = larger tumour) 53 % of control; (endpoint: mean tumor weight, dose: 150.0 mg/kg/injection, schedule: Q02DX011 (ip), vehicle: saline, higher = larger tumour) 82 % of control; (endpoint: mean tumor weight, dose: 200.0 mg/kg/injection, schedule: Q02DX011 (ip), vehicle: saline, higher = larger tumour) 37 % of control; (endpoint: mean tumor weight, dose: 300.0 mg/kg/injection, schedule: Q02DX011 (ip), vehicle: saline, higher = larger tumour) 6 % of control; (endpoint: mean tumor weight, dose: 400.0 mg/kg/injection, schedule: Q02DX011 (ip), vehicle: saline, higher = larger tumour) 13 % of control. Moreover, the T/C runs as follows: (endpoint: median survival time, dose: 200.0 mg/kg/injection, schedule: Q01DX007 (ip), vehicle: saline, higher = longer survival) 95 % of control; (endpoint: median survival time, dose: 400.0 mg/kg/injection, schedule: Q01DX007 (ip), vehicle: saline, higher = longer survival) 117 % of control; (endpoint: median survival time, dose: 540.0 mg/kg/injection, schedule: Q04DX003 (ip), vehicle: saline, higher = longer survival) 104 % of control; (endpoint: median survival time, dose: 800.0 mg/kg/injection, schedule: Q01DX007 (ip), vehicle: saline, higher = longer survival) 110 % of control; (endpoint: median survival time, dose: 800.0 mg/kg/injection, schedule: Q04DX003 (ip), vehicle: saline, higher = longer survival) 112 % of control; (endpoint: median survival time, dose: 1200.0 mg/kg/injection, schedule: Q04DX003 (ip), vehicle: saline, higher = longer survival) 114 % of control. The T/C reads like this: (endpoint: median tumor weight (est.), dose: 75.0 mg/kg/injection, schedule: Q02DX011 (ip), vehicle: saline, higher = larger tumour) 89 % of control; (endpoint: median tumor weight (est.), dose: 100.0 mg/kg/injection, schedule: Q02DX011 (ip), vehicle: saline, higher = larger tumour) 56 % of control; (endpoint: median tumor weight (est.), dose: 150.0 mg/kg/injection, schedule: Q02DX011 (ip), vehicle: saline, higher = larger tumour) 82 % of control; (endpoint: median tumor weight (est.), dose: 200.0 mg/kg/injection, schedule: Q02DX011 (ip), vehicle: saline, higher = larger tumour) 39 % of control; (endpoint: median tumor weight (est.), dose: 300.0 mg/kg/injection, schedule: Q02DX011 (ip), vehicle: saline, higher = larger tumour) 3 % of control; (endpoint: median tumor weight (est.), dose: 400.0 mg/kg/injection, schedule: Q02DX011 (ip), vehicle: saline, higher = larger tumour) 14 % of control.

Regarding `CNc1nc(N(C)C)nc(N(C)C)n1`, the T/C reads like this: (endpoint: median tumor weight (est.), dose: 15.0 mg/kg/injection, schedule: Q02DX011 (ip), vehicle: water, higher = larger tumour) 87 % of control; (endpoint: median tumor weight (est.), dose: 30.0 mg/kg/injection, schedule: Q02DX011 (ip), vehicle: water, higher = larger tumour) 85 % of control; (endpoint: median tumor weight (est.), dose: 60.0 mg/kg/injection, schedule: Q02DX011 (ip), vehicle: water, higher = larger tumour) 43 % of control; (endpoint: median tumor weight (est.), dose: 120.0 mg/kg/injection, schedule: Q02DX011 (ip), vehicle: water, higher = larger tumour) 13 % of control.

As to `Nc1ncnc2c1ccn2C1OC(CO)C(O)C1O` (stereo not drawn), the T/C by setting is: (endpoint: mean tumor weight, dose: 0.75 mg/kg/injection, schedule: Q02DX011 (ip), vehicle: saline, higher = larger tumour) 117 % of control; (endpoint: mean tumor weight, dose: 1.5 mg/kg/injection, schedule: Q02DX011 (ip), vehicle: saline, higher = larger tumour) 101 % of control; (endpoint: median tumor weight (est.), dose: 0.38 mg/kg/injection, schedule: Q02DX011 (ip), vehicle: saline, higher = larger tumour) 82 % of control; (endpoint: median tumor weight (est.), dose: 0.75 mg/kg/injection, schedule: Q02DX011 (ip), vehicle: saline, higher = larger tumour) 168 % of control; (endpoint: median tumor weight (est.), dose: 1.5 mg/kg/injection, schedule: Q02DX011 (ip), vehicle: saline, higher = larger tumour) 110 % of control.
